Data taken from ChEMBL document CHEMBL4350994, “Andrographolide: A natural product template for the generation of structurally and biologically diverse diterpenes” (Eur J Med Chem, 2019).
pEC50, pIC50: −log10 of the molar value.

How the values were obtained:
NCI/ADR-RES = test: Growth inhibition of human MCF7/ADR cells; format: functional
U-251 = test: Growth inhibition of human U251 cells; format: functional
DU-145 = test: Growth inhibition of human DU145 cells; format: functional
SK-OV-3 = test: Growth inhibition of human SKOV3 cells; format: functional
SW-620 = test: Growth inhibition of human SW620 cells; format: functional
A498 = test: Growth inhibition of human A498 cells; format: functional
[1] = Growth inhibition of human OVCAR1 cells; format: functional
Rattus norvegicus = test: Hypoglycemic activity in diabetic rat assessed as decrease in blood glucose level at 150 mg/kg after 24 hrs relative to control; format: functional; parameters: scale not given: the % may be the effect or the level left
[2] = Selectivity index, ratio of CC50 for MDCK cells to EC50 for H9N2 subtype
[3] = Antiviral activity H1N1 subtype infected in MDCK cells after 2 to 3 days; format: functional, cell-based; details: Influenza A virus
[4] = Selectivity index, ratio of CC50 for MDCK cells to EC50 for H1N1 subtype
[5] = Selectivity index, ratio of CC50 for MDCK cells to EC50 for H5N1 subtype
H5N1 subtype = test: Antiviral activity against H5N1 subtype infected in MDCK cells after 2 to 3 days; format: functional, organism-based; details: Influenza A virus
[6] = Antiviral activity against H9N2 subtype infected in MDCK cells after 2 to 3 days; format: functional, cell-based; details: Influenza A virus
Bile acid receptor [7] = molecular target: T1, Bile acid receptor (Homo sapiens, UniProt Q96RI1); test: Antagonist activity at FXR (unknown origin)
T1 sequence (Q96RI1 whole entry): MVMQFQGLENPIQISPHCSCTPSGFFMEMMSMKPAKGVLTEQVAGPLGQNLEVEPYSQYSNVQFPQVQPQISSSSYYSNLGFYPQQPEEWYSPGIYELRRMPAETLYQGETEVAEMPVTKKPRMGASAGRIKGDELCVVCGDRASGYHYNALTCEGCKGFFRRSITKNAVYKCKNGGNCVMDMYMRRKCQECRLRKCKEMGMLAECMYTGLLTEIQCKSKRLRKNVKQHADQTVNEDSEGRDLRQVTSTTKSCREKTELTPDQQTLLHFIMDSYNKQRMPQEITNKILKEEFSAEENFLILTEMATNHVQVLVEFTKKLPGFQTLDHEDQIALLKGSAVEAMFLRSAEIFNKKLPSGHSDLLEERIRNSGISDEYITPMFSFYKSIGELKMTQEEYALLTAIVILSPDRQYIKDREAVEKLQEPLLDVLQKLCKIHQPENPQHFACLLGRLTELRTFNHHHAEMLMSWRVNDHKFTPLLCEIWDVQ

MCF7 = test: Growth inhibition of human MCF7 cells; format: functional
Bile acid receptor [8] = molecular target: T1, Bile acid receptor; test: Antagonist activity at Gal4 DBD-fused human FXR LBD expressed in human HepG2 cells after 8 hrs by luciferase reporter gene assay; format: cell-based
Mus musculus [9] = test: Decrease in plasma triglycerides level in db/db mouse at 100 mg/kg administered daily for 6 days relative to control; format: functional; parameters: scale not given: the % may be the effect or the level left
Mus musculus [10] = test: Hypoglycemic activity in db/db mouse assessed as decrease in blood glucose level at 100 mg/kg administered daily for 6 days relative to control; format: functional; parameters: scale not given: the % may be the effect or the level left
[11] = Cytotoxicity against human KKU-M213 cells assessed as reduction in cell viability after 24 hrs by MTT assay; format: functional, cell-based; details: KKU-M213, 24 h

CCC(=O)OC[C@@]1(C)[C@H]2CC[C@@]3(CO3)[C@@H](C/C=C3/C(=O)OC[C@H]3OC(=O)/C=C/c3ccc(OC)c(OC)c3)[C@]2(C)CC[C@H]1OC(=O)CC
GI50 (NCI/ADR-RES): 0.4 to 7.5 µM | GI50 (U-251): 0.4 to 7.5 µM | GI50 (DU-145): 0.4 to 7.5 µM | GI50 (SK-OV-3): 0.4 to 7.5 µM | GI50 (SW-620): 0.4 to 7.5 µM | GI50 (A498): 0.4 to 7.5 µM

C=C1CC[C@@H]2[C@](C)(COC(C)=O)[C@H](OC(C)=O)CC[C@@]2(C)[C@@H]1C/C=C1/C(=O)OC[C@H]1OC(=O)CNC(C)=O
GI50 (U-251): 1.5 µM

C=C1CC[C@@H]2[C@]3(C)COC(C)(c4ccccc4)O[C@@H]3CC[C@@]2(C)[C@@H]1CC(NC(Cc1ccccc1)C(=O)OC)C1=CCOC1=O (some centres not stated)
GI50 [1]: 1.4 µM

CCC(=O)OC[C@@]1(C)[C@H]2CC[C@@]3(CO3)[C@@H](C/C=C3/C(=O)OC[C@H]3OC(=O)/C=C/c3ccccc3)[C@]2(C)CC[C@H]1OC(=O)CC
GI50 (NCI/ADR-RES): 0.08 to 6 µM | GI50 (U-251): 0.08 to 6 µM | GI50 (DU-145): 0.08 to 6 µM | GI50 (SK-OV-3): 0.08 to 6 µM | GI50 (SW-620): 0.08 to 6 µM | GI50 (A498): 0.08 to 6 µM

C[C@]1(CO)[C@H]2CC[C@@]3(CO3)[C@@H](C/C=C3/C(=O)OC[C@H]3OC(=O)/C=C/c3ccccc3)[C@]2(C)CC[C@H]1O
GI50 (NCI/ADR-RES): 0.5 to 9 µM | GI50 (U-251): 0.5 to 9 µM | GI50 (DU-145): 0.5 to 9 µM | GI50 (SK-OV-3): 0.5 to 9 µM | GI50 (SW-620): 0.5 to 9 µM | GI50 (A498): 0.5 to 9 µM

C=C1CC[C@@H]2[C@](C)(CO)[C@H](O)CC[C@@]2(C)[C@@H]1C/C=C1/C(=O)OC[C@H]1OC(=O)Nc1ccccc1
GI50 (NCI/ADR-RES): 0.4 µM

COc1ccc(Cl)cc1C(=O)NCCc1ccc(S(=O)(=O)NC(=O)NC2CCCCC2)cc1 [GLYBURIDE]
Activity (Rattus norvegicus): 62.02%

C=C1CC[C@@H]2[C@](C)(CO)[C@H](O)CC[C@@]2(C)[C@@H]1C/C=C/c1cccc(Cl)c1
GI50 (DU-145): 2 to 27 µM

CC(=O)OC[C@@]1(C)[C@H]2CC[C@@]3(CO3)[C@@H](CC(Sc3ccccc3)C3=CCOC3=O)[C@]2(C)CC[C@H]1OC(C)=O (some centres not stated)
GI50 (DU-145): 2 µM

CC(=O)OC[C@@]1(C)[C@H]2CC[C@@]3(CO3)[C@@H](C/C=C3/C(=O)OC[C@H]3OC(C)=O)[C@]2(C)CC[C@H]1OC(C)=O
GI50 (NCI/ADR-RES): 0.25 to 5 µM | GI50 (U-251): 0.25 to 5 µM | GI50 (DU-145): 0.25 to 5 µM | GI50 (SK-OV-3): 0.25 to 5 µM | GI50 (SW-620): 0.25 to 5 µM | GI50 (A498): 0.25 to 5 µM

C=C1CC[C@@H]2[C@]3(C)COC(C)(c4ccccc4)O[C@@H]3CC[C@@]2(C)[C@@H]1CC(C1=CCOC1=O)N1CCCC1C(=O)OC (some centres not stated)
GI50 [1]: 1 µM

C=C1CC[C@@H]2[C@](C)(CO)[C@H](O)CC[C@@]2(C)[C@@H]1C/C=C1/C(=O)OC[C@H]1OC(=O)CCCCC1CCSS1 (some centres not stated)
Selectivity Index [2]: 51 - 109 | pEC50 [3]: 4.82 to 5.14 | Selectivity Index [4]: 51 - 109 | Selectivity Index [5]: 51 - 109 | pEC50 (H5N1 subtype): 4.82 to 5.14 | pEC50 [6]: 4.82 to 5.14

C=C1CC[C@@H]2[C@](C)(CO)[C@H](O)CC[C@@]2(C)[C@@H]1C/C=C1/SC(=O)NC1=O
GI50 (DU-145): 0.78 µM

C=C1CC[C@@H]2[C@](C)(CO)[C@H](O)CC[C@@]2(C)[C@@H]1C/C=C1/C(=O)OC[C@@H]1Oc1ccccc1OC
pIC50 (Bile acid receptor [7]): 5.70 to 6.26

C=C1CC[C@@H]2[C@](C)(COC(C)=O)[C@H](OC(C)=O)CC[C@@]2(C)[C@@H]1CC(C1=CCOC1=O)n1cc(I)c(=O)[nH]c1=O (some centres not stated)
GI50 (NCI/ADR-RES): 2 µM | GI50 (MCF7): 2 µM | GI50 [1]: 2 µM | GI50 (U-251): 2 µM

C=C1CC[C@@H]2[C@]3(C)COC(C)(C)O[C@@H]3CC[C@@]2(C)[C@@H]1C/C=C1/C(=O)OC[C@@H]1Oc1ccc([N+](=O)[O-])cc1OC
pIC50 (Bile acid receptor [7]): 5.70 to 6.26

C=C1CC[C@@H]2[C@](C)(CO)[C@H](O)CC[C@@]2(C)[C@@H]1C/C=C1/C(=O)OC[C@H]1O [ANDROGRAPHOLIDE]
pIC50 (Bile acid receptor [8]): 5.01 | GI50 (NCI/ADR-RES): 3 to 20 µM | GI50 (MCF7): 3 to 20 µM | Activity (Mus musculus [9]): 54% | GI50 [1]: 3 to 20 µM | GI50 (U-251): 3 to 20 µM | GI50 (DU-145): 3 to 20 µM | Activity (Mus musculus [10]): 64% | GI50 (SK-OV-3): 3 to 20 µM | GI50 (SW-620): 3 to 20 µM | GI50 (A498): 3 to 20 µM | pIC50 (Bile acid receptor [7]): 5.01

C=C1CC[C@@H]2[C@](C)(CO)[C@H](O)CC[C@@]2(C)[C@@H]1C/C=C/c1ccccc1
GI50 (DU-145): 2 to 27 µM

C=C1CC[C@@H]2[C@](C)(CO)[C@H](O)CC[C@@]2(C)[C@@H]1C/C=C1/C(=O)OC[C@H]1OC(=O)c1ccccc1
GI50 (U-251): 1.5 µM

CC(C)(C)[Si](OC[C@@]1(C)[C@H]2CC[C@@]3(CO3)[C@@H](C/C=C3/C(=O)OC[C@H]3O)[C@]2(C)CC[C@H]1O)(c1ccccc1)c1ccccc1
pIC50 [11]: 5.10

C=C1CC[C@@H]2[C@](C)(CO)[C@H](O)CC[C@@]2(C)[C@@H]1C/C=C/c1ccc(F)cc1
GI50 (DU-145): 2 to 27 µM

C=C1CC[C@@H]2[C@]3(C)COC(C)(C)O[C@@H]3CC[C@@]2(C)[C@@H]1Cc1cc(=O)[nH]c(N)n1
GI50 (DU-145): 0.2 µM

CCC(=O)OC[C@@]1(C)[C@H]2CC[C@@]3(CO3)[C@@H](C/C=C3/C(=O)OC[C@H]3OC(=O)/C=C/c3cccc(OC)c3)[C@]2(C)CC[C@H]1OC(=O)CC
GI50 (NCI/ADR-RES): 0.6 to 4.8 µM | GI50 (U-251): 0.6 to 4.8 µM | GI50 (DU-145): 0.6 to 4.8 µM | GI50 (SK-OV-3): 0.6 to 4.8 µM | GI50 (SW-620): 0.6 to 4.8 µM | GI50 (A498): 0.6 to 4.8 µM
